The record followed here is PubChem BioAssay (NCI).

Each structure is given as a SMILES string.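 Grown in 96-well plates, cells were treated for 48 hours with each compound at five concentrations. Insufficient inhibition: endpoint recorded as highest concentration tested. GI50 is the concentration that inhibits growth by half. TGI: total growth inhibition.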 Where only a bound is given, the exact number is not on record here.

Among the test systems are EKVX NSCLC; SK-MEL-28 melanoma; SF-295 CNS; UACC-257 melanoma; SNB-75 CNS; U251 CNS; UACC-62 melanoma; SK-MEL-2 melanoma; HCC-2998 colon; CAKI-1 renal.
Common to all, as to assay: growth of human tumour cells (NCI), 48 h

Take `COc1ccc(OC(C)C(=O)O)c2c(=O)ccccc12` (stereo unspecified): the TGI in the test on EKVX NSCLC, in the test with SK-MEL-28 melanoma, in the test with SF-295 CNS, in the test on UACC-257 melanoma, in the test on SNB-75 CNS and in the test with U251 CNS was more than 100 µM each time. For the same molecule, the TGI with UACC-62 melanoma, with SK-MEL-2 melanoma and with HCC-2998 colon was more than 100 µM throughout.
With `CCC(CO)Nc1nc2c(c(=O)n(C)c(=O)n2C)n1CCO` (stereo unspecified), the TGI in the test with EKVX NSCLC, in the test with SK-MEL-28 melanoma, in the test on SF-295 CNS, in the test on UACC-257 melanoma, in the test on SNB-75 CNS and in the test on U251 CNS was more than 100 µM each time. In addition, the TGI in the test on UACC-62 melanoma, in the test on SK-MEL-2 melanoma and in the test on HCC-2998 colon was more than 100 µM in each case.
As for `C1=CCCC=CCC1.C[PH+](C)C.C[PH+](C)C.C[PH+](C)C.[Cl-].[Ir]`, the GI50 with EKVX NSCLC is 76.1 µM; in the test with SK-MEL-28 melanoma, 46.6 µM; in the test with SF-295 CNS it was more than 100 µM; in the test on UACC-257 melanoma it was 23.2 µM; with SNB-75 CNS it was 34.3 µM; in the test with U251 CNS, 46.2 µM. The GI50 in the test with UACC-62 melanoma is 32.6 µM; in the test on SK-MEL-2 melanoma it was 23.4 µM; with HCC-2998 colon, 91.4 µM. The TGI in the test on EKVX NSCLC is more than 100 µM; with SK-MEL-28 melanoma, more than 100 µM; in the test with SF-295 CNS, more than 100 µM; with UACC-257 melanoma, 59.1 µM; in the test on SNB-75 CNS, more than 100 µM; in the test with U251 CNS it was more than 100 µM. Also, the TGI with UACC-62 melanoma was more than 100 µM; in the test with SK-MEL-2 melanoma it was 60.4 µM; with HCC-2998 colon it was more than 100 µM.
As for `COc1ccc([C@@H]2OC(=O)C3C2C(=O)O[C@H]3c2ccc(OC)c(OC)c2)cc1OC` (stereo partly specified), the TGI in the test on EKVX NSCLC, with SK-MEL-28 melanoma, in the test with SF-295 CNS, in the test with UACC-257 melanoma, in the test with SNB-75 CNS and in the test on U251 CNS was more than 100 µM each time. The TGI in the test on UACC-62 melanoma, with SK-MEL-2 melanoma and with HCC-2998 colon was more than 100 µM each time.
On to `CCn1c2ccccc2c2cc(C(=O)c3ccc(C)c4ccccc34)ccc21`, for which the GI50 in the test with EKVX NSCLC is 0.528 µM; with SK-MEL-28 melanoma, 0.477 µM; in the test on SF-295 CNS, 0.273 µM; in the test with CAKI-1 renal, 1.61 µM; in the test on UACC-257 melanoma it was 39.3 µM; in the test with U251 CNS, 0.278 µM. The GI50 in the test with UACC-62 melanoma was 0.296 µM; in the test with SK-MEL-2 melanoma, 0.324 µM; in the test with HCC-2998 colon it was 0.549 µM. The TGI in the test with EKVX NSCLC is more than 100 µM; with SK-MEL-28 melanoma, more than 100 µM; with SF-295 CNS, 0.936 µM; in the test with CAKI-1 renal, more than 100 µM; in the test with UACC-257 melanoma, more than 100 µM; in the test on U251 CNS it was 1.52 µM. Also, the TGI in the test on UACC-62 melanoma is 3.52 µM; with SK-MEL-2 melanoma, 1.81 µM; in the test on HCC-2998 colon, 3.8 µM.
With `COC(=O)CC[C@]12C[C@]13CC[C@]1(C)C4C(C)C[C@]5(CC(C)C(=O)O5)OC4CC1(C)C3CCC2C(C)(C)O` (stereo partly specified), the TGI with EKVX NSCLC, with SK-MEL-28 melanoma, in the test on SF-295 CNS, in the test with UACC-257 melanoma, with SNB-75 CNS and in the test with U251 CNS was more than 100 µM throughout. The TGI with SK-MEL-2 melanoma was 82.6 µM; in the test on HCC-2998 colon, more than 100 µM.
Consider `COc1c(N2CCN(CN3C(=O)C(=Nc4ccc(S(=O)(=O)Nc5ncccn5)cc4)c4cc(Cl)ccc43)C(C)C2)c(F)cc2c(=O)c(C(=O)O)cn(C3CC3)c12` (stereo unspecified), for which the GI50 was 18.9 µM with EKVX NSCLC; 30.4 µM with SK-MEL-28 melanoma; 24.5 µM in the test with SF-295 CNS; 14 µM in the test with CAKI-1 renal; 6.77 µM in the test with UACC-257 melanoma; 19.1 µM in the test with SNB-75 CNS. For the same molecule, the GI50 with U251 CNS was 34.8 µM; in the test on UACC-62 melanoma it was 13.7 µM; in the test with SK-MEL-2 melanoma it was 26.6 µM. The TGI with EKVX NSCLC was more than 50 µM; in the test with SK-MEL-28 melanoma, more than 50 µM; in the test on SF-295 CNS, more than 50 µM; in the test on CAKI-1 renal, 42.2 µM; with UACC-257 melanoma, 17.7 µM; with SNB-75 CNS, more than 50 µM. In addition, the figures for the TGI in the test on U251 CNS, with UACC-62 melanoma and in the test with SK-MEL-2 melanoma were more than 50 µM, 49.9 µM and more than 50 µM, respectively.
For `CC[C@H](C)[C@H](NC(=O)c1cccn1C)C(=O)N(C)[C@H](C[C@@H](OC(C)=O)c1nc(C(=O)N[C@@H](Cc2ccccc2)C[C@H](C)C(=O)OC)cs1)C(C)C`, the GI50 is 0.543 µM in the test with EKVX NSCLC; 1.5 µM in the test on SK-MEL-28 melanoma; 0.0744 µM in the test with SF-295 CNS; 18.2 µM with UACC-257 melanoma; 0.0929 µM in the test with SNB-75 CNS; 0.24 µM in the test on U251 CNS. In addition, the GI50 with UACC-62 melanoma was 0.0569 µM; in the test on SK-MEL-2 melanoma, 0.347 µM; in the test on HCC-2998 colon, 0.166 µM. For the same molecule, the TGI in the test on EKVX NSCLC is more than 33.3 µM; in the test with SK-MEL-28 melanoma, more than 33.3 µM; in the test on UACC-257 melanoma it was more than 33.3 µM; in the test with SNB-75 CNS, more than 33.3 µM; in the test on U251 CNS it was more than 33.3 µM; in the test with UACC-62 melanoma it was more than 26 µM. The TGI in the test on SK-MEL-2 melanoma and with HCC-2998 colon was more than 33.3 µM in each case.
On to `CCOC(=O)C1=C(C)NC(c2ccco2)=C(C#N)C1c1cccc([N+](=O)[O-])c1` (stereo unspecified), for which the GI50 is 0.0263 µM with EKVX NSCLC; 0.0105 µM in the test with SK-MEL-28 melanoma; 0.0223 µM with CAKI-1 renal; 0.0882 µM with UACC-257 melanoma; 0.0134 µM in the test on U251 CNS; 0.0115 µM in the test on SK-MEL-2 melanoma. For the same molecule, in the test on HCC-2998 colon, the GI50 is 0.0558 µM. Also, the TGI with EKVX NSCLC stood at 88.6 µM; in the test with SK-MEL-28 melanoma it was 22.5 µM; in the test on CAKI-1 renal, 58.4 µM; in the test with UACC-257 melanoma, 26.2 µM; in the test with U251 CNS, 0.059 µM; in the test on UACC-62 melanoma it was 2.27 µM. Moreover, the TGI in the test with SK-MEL-2 melanoma came to 24.3 µM; in the test with HCC-2998 colon, 0.159 µM.
